Experimental data: ChEMBL document CHEMBL5346899, “PKM2/PDK1 dual-targeted shikonin derivatives restore the sensitivity of EGFR-mutated NSCLC cells to gefitinib by remodeling glucose metabolism” (Eur J Med Chem, 2023)
Calls of active or inactive are those of the source. The calls are words filed in the database; no cut-off is given here.

What was measured:
A549 [1] = assay: cells; assay type: functional, cell-based; settings: Homo sapiens, A549, 24 h
Description: Antiproliferative activity against human A549 cells assessed as inhibition of cell growth incubated for 24 hrs by CCK-8 assay

NCI-H1975 [2] = assay: cells; assay type: functional, cell-based; settings: Homo sapiens, NCI-H1975, 24 h
Description: Antiproliferative activity against human NCI-H1975 cells assessed as inhibition of cell growth incubated for 24 hrs by CCK-8 assay

HCC827 [3] = assay: cells; assay type: functional, cell-based; settings: Homo sapiens, HCC827, 24 h
Description: Antiproliferative activity against human HCC827 cells assessed as inhibition of cell growth incubated for 24 hrs by CCK-8 assay

A549 [4] = assay: Induction of apoptosis in human A549 cells assessed as early apoptotic cells at 2 micromol/L incubated for 24 hrs by Annexin V-FITC/PI staining based analysis (reference value: […]%); assay type: functional; settings: dose 2 µmol/L
NCI-H1975 [5] = assay: Induction of apoptosis in human NCI-H1975 cells assessed as late apoptotic cells at 1 micromol/L incubated for 24 hrs by Annexin V-FITC/PI staining based analysis (reference value: 2.66%); assay type: functional; settings: dose 1 µmol/L, at 1 µM
NCI-H1975 [6] = assay: Induction of apoptosis in human NCI-H1975 cells assessed as late apoptotic cells at 2 micromol/L incubated for 24 hrs by Annexin V-FITC/PI staining based analysis (reference value: 2.66%); assay type: functional; settings: dose 2 µmol/L, at 2 µM
NCI-H1975 [7] = assay: Induction of apoptosis in human NCI-H1975 cells assessed as regulation of Caspase-3 expression by Western blot analysis; assay type: functional, cell-based
NCI-H1975 [8] = assay: Induction of apoptosis in human NCI-H1975 cells assessed as regulation of FADD expression by Western blot analysis; assay type: functional, cell-based
HCC827 [9] = assay: Induction of intracellular ROS accumulation in human HCC827 cells; assay type: functional, cell-based
Pyruvate kinase PKM = Pyruvate kinase PKM (Homo sapiens, UniProt P14618); assay: Activation of PKM2 in siRNA mediated PKM2 knockdown human HCC827 cells at 1 to 2 micromol/L by Western blot analysis; assay type: cell-based; settings: dose 1-2 µmol/L
NCI-H1975 [10] = assay: Antiproliferative activity against siRNA mediated PKM2 knockdown human NCI-H1975 cells assessed as inhibition of cell growth incubated for 24 hrs by CCK-8 assay; assay type: functional, cell-based; settings: NCI-H1975, 24 h
NCI-H1975 [11] = assay: Induction of apoptosis in human NCI-H1975 cells transfected with siRNA assessed as late apoptotic cells at 2 micromol/L incubated for 24 hrs by Annexin V-FITC/PI staining based analysis (reference value: 4.03%); assay type: functional; settings: dose 2 µmol/L, at 2 µM
NCI-H1975 [12] = assay: Antiproliferative activity against siRNA mediated […] knockdown human NCI-H1975 cells assessed as inhibition of cell growth incubated for 24 hrs by CCK-8 assay; assay type: functional, cell-based; settings: NCI-H1975, 24 h
NCI-H1975 [13] = assay: Induction of apoptosis in human NCI-H1975 cells transfected with siRNA assessed as late apoptotic cells at 1 micromol/L incubated for 24 hrs by Annexin V-FITC/PI staining based analysis (reference value: 4.03%); assay type: functional; settings: dose 1 µmol/L, at 1 µM
NCI-H1975 [14] = assay: Induction of apoptosis in human NCI-H1975 cells with siRNA mediated […] knockdown assessed as early apoptotic cells at 1 micromol/L incubated for 24 hrs by Annexin V-FITC/PI staining based analysis (reference value: 2.54%); assay type: functional; settings: dose 1 µmol/L, at 1 µM
NCI-H1975 [15] = assay: Antiproliferative activity against human NCI-H1975 cells transfected with siRNA assessed as inhibition of cell growth incubated for 24 hrs by CCK-8 assay; assay type: functional, cell-based; settings: NCI-H1975, 24 h
[16] = Toxicity in athymic nu/nu mouse xenografted with human NCI-H1975 cells assessed as reduction in body weight at 2.4 to 4.8 mg/kg, ip administered every 2 days for 11 days; assay type: organism-based; settings: in vivo, 264 h, dose 2.4-4.8 mg/kg, time 11 day
NCI-H1975 [17] = assay: Antitumor activity against human NCI-H1975 cells xenografted in athymic nu/nu mouse assessed as induction of apoptosis in tumor at 2.4 to 4.8 mg/kg, ip administered every 2 days for 11 days by TUNEL assay; assay type: functional, organism-based; settings: dose 2.4-4.8 mg/kg, time 11.0 day
NCI-H1975 [18] = assay: Synergistic antiproliferative activity against human NCI-H1975 cells harboring EGFR mutant assessed as cell growth inhibition at 0.5 to 4 micromol/L incubated for 24 hrs in presence of 2.5 to 20 micromol/L gefitinib by CCK-8 assay; assay type: functional, cell-based; settings: dose 0.5-4 µmol/L
NCI-H1975 [19] = assay: Induction of apoptosis in human NCI-H1975 cells assessed as late apoptotic cells at 0.5 micromol/L incubated for 24 hrs by Annexin V-FITC/PI staining based analysis (reference value: 8.61%); assay type: functional; settings: dose 0.5 µmol/L, at 0.5 µM
NCI-H1975 [20] = assay: Induction of apoptosis in human NCI-H1975 cells assessed as live cells at 0.5 micromol/L incubated for 24 hrs in presence of gefitinib by Annexin V-FITC/PI staining based analysis (reference value: 88.7%); assay type: functional; settings: dose 0.5 µmol/L, at 0.5 µM

Pyruvate kinase PKM, sequence (P14618 2-531 limits assumed): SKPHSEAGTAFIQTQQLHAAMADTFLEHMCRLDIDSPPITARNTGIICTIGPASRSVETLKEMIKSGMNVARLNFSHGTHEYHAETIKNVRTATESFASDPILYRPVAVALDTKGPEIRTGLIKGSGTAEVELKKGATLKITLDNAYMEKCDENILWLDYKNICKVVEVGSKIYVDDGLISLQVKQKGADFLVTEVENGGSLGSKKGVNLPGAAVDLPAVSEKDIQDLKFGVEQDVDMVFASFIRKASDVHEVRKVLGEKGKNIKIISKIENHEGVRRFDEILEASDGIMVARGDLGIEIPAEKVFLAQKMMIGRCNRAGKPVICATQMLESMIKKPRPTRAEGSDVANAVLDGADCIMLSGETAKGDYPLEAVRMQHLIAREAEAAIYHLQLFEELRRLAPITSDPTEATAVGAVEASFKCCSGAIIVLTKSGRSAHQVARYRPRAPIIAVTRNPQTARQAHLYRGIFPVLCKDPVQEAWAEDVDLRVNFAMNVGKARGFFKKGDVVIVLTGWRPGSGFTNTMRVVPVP

For `COC(=O)[C@H](CS[C@H](CC=C(C)C)C1=CC(=O)c2c(O)ccc(O)c2C1=O)NC(=O)CCCC[C@@H]1CCSC(c2ccccc2C)S1` (stereo partly specified), which IC50 (A549 [1]) is on record?
Its IC50 is 6.26 µM.

What about the IC50 (NCI-H1975 [2]) of the same compound?
The IC50 was 1.51 µM.

What about the IC50 (HCC827 [3]) of the same compound?
Its IC50 is 5.19 µM.

And the Activity (A549 [4])?
Its Activity is 11.8%.

What about the Activity (NCI-H1975 [5]) of the same compound?
The Activity was 23.6%.

And the Activity (NCI-H1975 [6])?
The Activity was 37.3%.

And the Activity (NCI-H1975 [7])?
Its Activity is “Active”.

What about the Activity (NCI-H1975 [8]) of the same compound?
The Activity was “Active”.

And the Activity (HCC827 [9])?
Its Activity is “Active”.

What about the Activity (Pyruvate kinase PKM) of the same compound?
The Activity was “inactive”.

And the IC50 (NCI-H1975 [10])?
Its IC50 is 8 µM.

What about the Activity (NCI-H1975 [11]) of the same compound?
The Activity was 9.4%.

What about the IC50 (NCI-H1975 [12]) of the same compound?
The IC50 was 9 µM.

What about the Activity (NCI-H1975 [13]) of the same compound?
The Activity was 7.86%.

And the Activity (NCI-H1975 [14])?
Its Activity is 1.82%.

What about the IC50 (NCI-H1975 [15]) of the same compound?
The IC50 was 3.5 µM.

What about the Activity [16] of the same compound?
Its Activity is “Non-Toxic”.

What about the Activity (NCI-H1975 [17]) of the same compound?
The Activity was “Active”.

What about the Activity (NCI-H1975 [18]) of the same compound?
The Activity was “Active”.

And the Activity (NCI-H1975 [19])?
Its Activity is 11.2%.

What about the Activity (NCI-H1975 [20]) of the same compound?
Its Activity is 57.5%.
